Measured values taken from patent publication US10548862B2, “Topical formulation and method for preventing or treating acne” (Gongwin Biopharm Holdings Co., Ltd., priority 2017, dated 2020).
In brackets after ≈: the same amount, converted by molar mass.

Experiment: Solubility of p-TSA in various solvents
Format: physicochemical
Details: thermodynamic from solid

SMILES: Cc1ccc(S(N)(=O)=O)cc1 [p-TSA, p-Toluenesulfonamide]
- solubility (aqueous with cosolvent or surfactant or cyclodextrin, in 20% 7-sulfobutyl-ether-β-cyclodextrin (SBEβCD), n = 3): 17.6 mg/mL (≈ 103 mM)
- solubility (organic solvent or mixture, in Absolute ethanol, n = 3): 108 mg/mL (≈ 628 mM)
- solubility (organic solvent or mixture, in Dimethyl sulfoxide (DMSO), n = 3): 786 mg/mL (≈ 4590 mM)
- solubility (organic solvent or mixture, in Glycerol, n = 3): 28.4 mg/mL (≈ 166 mM)
- solubility (organic solvent or mixture, in Glycofurol 75, n = 3): 443 mg/mL (≈ 2590 mM)
- solubility (organic solvent or mixture, in Polyethylene glycol 400 (PEG-400), n = 3): 467 mg/mL (≈ 2720 mM)
- solubility (organic solvent or mixture, in Propylene glycol (PG), n = 3): 118 mg/mL (≈ 688 mM)
